# Test results from PMC10035947, “Development of novel anilinoquinazoline-based carboxylic acids as non-classical carbonic anhydrase IX and XII inhibitors” (Journal of Enzyme Inhibition and Medicinal Chemistry, 2023).
# Columns and labels:
# hCA I = target: T1, hCA I (Homo sapiens, UniProt P00915); assay: stopped flow CO2 hydrase assay; type: biochemical; details: mean from 3 assays
# T1 construct: made in house
# Description: (§1) Carbonic anhydrase inhibition assay
# (§2) The carbonic anhydrase catalyzed CO2 hydration actions for the quinazoline-based […]
# (§3) Photophysics stopped-flow, as described previously. The enzymes are recombinant proteins prepared in our lab. Phenol red (at a concentration of 0.2 mM) has been used as indicator, working at the absorbance maximum of 557 nm, with 20 mM Hepes (pH 7.5) as buffer, and 20 mM Na2SO4 (for maintaining constant the ionic strength), following the initial rates of the CA- […]
# (§4) 1.7 to 17 mM for the determination of the kinetic parameters and inhibition constants. For each […]
# (§5) initial velocity. The uncatalyzed rates were determined in the same manner and subtracted from the total observed rates. Stock solutions of inhibitor (0.1 mM) were prepared in distilled-deionized water and dilutions up to 0.01 nM were done thereafter with the assay buffer. Inhibitor and enzyme solutions were preincubated together for 15 min at room temperature prior to assay, in order to allow for the formation of the E-I complex. The inhibition constants were obtained by non-linear least-squares methods using PRISM 3 and the Cheng-Prusoff equation, and represent the mean from at least three different determinations.
# hCA IX = target: T2, hCA IX (Homo sapiens, UniProt Q16790); assay: stopped flow CO2 hydrase assay; type: biochemical
# T2 construct: made in house
# Description: as §1, §2, §3, §4, §5
# hCA XII = target: T3, hCA XII (Homo sapiens, UniProt O43570); assay: stopped flow CO2 hydrase assay; type: biochemical
# T3 construct: made in house
# T3 sequence (O43570 25-354): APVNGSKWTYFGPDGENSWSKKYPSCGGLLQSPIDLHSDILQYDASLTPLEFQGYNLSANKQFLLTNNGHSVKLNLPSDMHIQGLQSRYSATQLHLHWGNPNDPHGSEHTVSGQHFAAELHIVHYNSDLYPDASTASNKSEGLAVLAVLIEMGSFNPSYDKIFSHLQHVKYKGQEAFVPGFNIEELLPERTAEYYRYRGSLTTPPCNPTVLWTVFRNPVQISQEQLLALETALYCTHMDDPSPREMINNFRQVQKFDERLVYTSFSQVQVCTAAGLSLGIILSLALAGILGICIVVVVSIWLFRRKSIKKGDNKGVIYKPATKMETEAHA
# Description: as §1, §2, §3, §4, §5
# MOLT-4 = assay: NCI SRB assay; type: cell-based, human
# RPMI-8226 = assay: NCI SRB assay; type: cell-based, human
# NCI-H226 = assay: NCI SRB assay; type: cell-based, human
# COLO 205 = assay: NCI SRB assay; type: cell-based, human
# HCC-2998 = assay: NCI SRB assay; type: cell-based, human
# KM12 = assay: NCI SRB assay; type: cell-based, human
# SW-620 = assay: NCI SRB assay; type: cell-based, human
# SF-539 = assay: NCI SRB assay; type: cell-based, human
# U251 = assay: NCI SRB assay; type: cell-based, human
# MALME-3M = assay: NCI SRB assay; type: cell-based, human
# MDA-MB-435 = assay: NCI SRB assay; type: cell-based
# SK-MEL-28 = assay: NCI SRB assay; type: cell-based, human
# UACC-257 = assay: NCI SRB assay; type: cell-based, human
# UACC-62 = assay: NCI SRB assay; type: cell-based, human
# IGROV1 = assay: NCI SRB assay; type: cell-based, human
# OVCAR-3 = assay: NCI SRB assay; type: cell-based, human
# OVCAR-4 = assay: NCI SRB assay; type: cell-based, human
# OVCAR-5 = assay: NCI SRB assay; type: cell-based, human
# NCI/ADR-RES = assay: NCI SRB assay; type: cell-based, human
# 786-0 = assay: NCI SRB assay; type: cell-based, human
# ACHN = assay: NCI SRB assay; type: cell-based, human
# HS 578 T = assay: NCI SRB assay; type: cell-based, human
# BT-549 = assay: NCI SRB assay; type: cell-based, human
# T-47D = assay: NCI SRB assay; type: cell-based, human
# T1 sequence (P00915 whole entry): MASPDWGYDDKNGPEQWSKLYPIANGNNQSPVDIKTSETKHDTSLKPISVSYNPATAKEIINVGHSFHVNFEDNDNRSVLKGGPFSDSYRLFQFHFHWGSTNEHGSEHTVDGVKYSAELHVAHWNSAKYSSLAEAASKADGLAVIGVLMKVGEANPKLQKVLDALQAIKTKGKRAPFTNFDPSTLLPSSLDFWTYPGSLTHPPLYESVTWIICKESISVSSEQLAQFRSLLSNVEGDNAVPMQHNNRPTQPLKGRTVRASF
structure (smiles),measurement,setting,value
"Cc1cccc(-c2nc(Nc3ccccc3C(=O)O)c3ccccc3n2)c1 [6a, 2-((2-(m-Tolyl)quinazolin-4-yl)amino)benzoic acid]",Ki,hCA I,> 100 µM
same,Selectivity ratio I/IX,hCA IX; KI hCA I / KI hCA IX,2.4
same,Selectivity ratio II/IX,hCA IX; KI hCA II / KI hCA IX,2.00
same,Ki,hCA IX; mean from 3 assays,42.5 µM
same,Selectivity ratio I/XII,hCA XII; KI hCA I / KI hCA XII,11.1
same,Selectivity ratio II/XII,hCA XII; KI hCA II / KI hCA XII,9.47
same,Ki,hCA XII; mean from 3 assays,9 µM
same,GI%,"MOLT-4; MOLT-4, 10 μM",65%
same,Growth Percent,"MOLT-4; MOLT-4, 1.00E-5 Molar",34.28%
same,GI%,"RPMI-8226; RPMI-8226, 10 μM",71%
same,Growth Percent,"RPMI-8226; RPMI-8226, 1.00E-5 Molar",28.59%
same,GI%,"NCI-H226; NCI-H226, 10 μM",64%
same,Growth Percent,"NCI-H226; NCI-H226, 1.00E-5 Molar",36.13%
same,GI%,"COLO 205; COLO 205, 10 μM",– (Only GI% higher than 20% are shown)
same,Growth Percent,"COLO 205; COLO 205, 1.00E-5 Molar",120.57%
same,GI%,"HCC-2998; HCC-2998, 10 μM",73%
same,Growth Percent,"HCC-2998; HCC-2998, 1.00E-5 Molar",27.10%
same,GI%,"KM12; KM12, 10 μM",70%
same,Growth Percent,"KM12; KM12, 1.00E-5 Molar",29.97%
same,GI%,"SW-620; SW-620, 10 μM",65%
same,Growth Percent,"SW-620; SW-620, 1.00E-5 Molar",35.45%
same,GI%,"SF-539; SF-539, 10 μM",52%
same,Growth Percent,"SF-539; SF-539, 1.00E-5 Molar",47.66%
same,GI%,"U251; U251, 10 μM",73%
same,Growth Percent,"U251; U251, 1.00E-5 Molar",26.61%
same,GI%,MALME-3M; 10 μM,63%
same,Growth Percent,MALME-3M; 1.00E-5 Molar,37.17%
same,GI%,"MDA-MB-435; MDA-MB-435, 10 μM",55%
same,Growth Percent,"MDA-MB-435; MDA-MB-435, 1.00E-5 Molar",44.63%
same,GI%,"SK-MEL-28; SK-MEL-28, 10 μM",50%
same,Growth Percent,"SK-MEL-28; SK-MEL-28, 1.00E-5 Molar",49.95%
same,GI%,"UACC-257; UACC-257, 10 μM",51%
same,Growth Percent,"UACC-257; UACC-257, 1.00E-5 Molar",49.24%
same,GI%,"UACC-62; UACC-62, 10 μM",72%
same,Growth Percent,"UACC-62; UACC-62, 1.00E-5 Molar",28.00%
same,GI%,"IGROV1; IGROV1, 10 μM",41%
same,Growth Percent,"IGROV1; IGROV1, 1.00E-5 Molar",59.24%
same,GI%,"OVCAR-3; OVCAR-3, 10 μM",66%
same,Growth Percent,"OVCAR-3; OVCAR-3, 1.00E-5 Molar",34.15%
same,GI%,"OVCAR-4; OVCAR-4, 10 μM",58%
same,Growth Percent,"OVCAR-4; OVCAR-4, 1.00E-5 Molar",41.88%
same,GI%,"OVCAR-5; OVCAR-5, 10 μM",23%
same,Growth Percent,"OVCAR-5; OVCAR-5, 1.00E-5 Molar",77.00%
same,GI%,NCI/ADR-RES; 10 μM,75%
same,Growth Percent,NCI/ADR-RES; 1.00E-5 Molar,24.78%
same,GI%,"786-0; 786-0, 10 μM",75%
same,Growth Percent,"786-0; 786-0, 1.00E-5 Molar",25.01%
same,GI%,ACHN; 10 μM,63%
same,Growth Percent,ACHN; 1.00E-5 Molar,36.44%
same,GI%,"HS 578 T; HS 578 T, 10 μM",84%
same,Growth Percent,"HS 578 T; HS 578T, 1.00E-5 Molar",16.61%
same,GI%,"BT-549; BT-549, 10 μM",100%
same,Growth Percent,"BT-549; BT-549, 1.00E-5 Molar",-0.68%
same,GI%,T-47D; 10 μM,73%
same,Growth Percent,T-47D; 1.00E-5 Molar,26.79%
